Results taken from the CheMixHub viscosity set.

Experiment: xn = mol fraction of the nth substance listed
Conditions: 100 kPa

CC(C)NC(C)C + CC(C)CO
viscosity [mPa·s]
Conditions | 298.15 K | 303.15 K | 308.15 K
x1 = 0.0559 | 2.916 | 2.467 | 2.005
x1 = 0.1015 | 2.616 | 2.232 | 1.833
x1 = 0.1519 | 2.295 | 1.98 | 1.662
x1 = 0.2069 | 1.995 | 1.738 | 1.459
x1 = 0.2516 | 1.765 | 1.549 | 1.319
x1 = 0.3055 | 1.507 | 1.346 | 1.155
x1 = 0.3944 | 1.194 | 1.067 | 0.931
x1 = 0.4988 | 0.926 | 0.837 | 0.743
x1 = 0.6017 | 0.73 | 0.674 | 0.607
x1 = 0.7131 | 0.586 | 0.553 | 0.509
x1 = 0.8018 | 0.504 | 0.485 | 0.448
x1 = 0.865 | 0.455 | 0.441 | 0.409
x1 = 0.9062 | 0.433 | 0.419 | 0.395
x1 = 0.9423 | 0.409 | 0.396 | 0.379

CC(C)NC(C)C + CC(C)O
viscosity [mPa·s]
Conditions | 298.15 K | 303.15 K | 308.15 K
x1 = 0.0499 | 1.789 | 1.565 | 1.397
x1 = 0.1033 | 1.565 | 1.393 | 1.253
x1 = 0.1405 | 1.437 | 1.28 | 1.153
x1 = 0.2062 | 1.245 | 1.108 | 1.004
x1 = 0.2498 | 1.123 | 1.012 | 0.922
x1 = 0.303 | 1.003 | 0.904 | 0.825
x1 = 0.4121 | 0.809 | 0.735 | 0.677
x1 = 0.4955 | 0.698 | 0.639 | 0.593
x1 = 0.5984 | 0.592 | 0.551 | 0.513
x1 = 0.6974 | 0.52 | 0.498 | 0.466
x1 = 0.7902 | 0.468 | 0.447 | 0.421
x1 = 0.8632 | 0.434 | 0.419 | 0.398
x1 = 0.9067 | 0.412 | 0.401 | 0.382
x1 = 0.9459 | 0.397 | 0.388 | 0.3694
